The values below come from patent publication US20250129067A1 (Progentos Therapeutics, Inc., priority 2021, published 2025).

Each structure is given as a SMILES string. Where two headings read alike, the source gives them in different places.

For data set [1], the system named is Oligodendrocyte progenitor cells (OPCs). Briefly: In vitro OPC differentiation assay, GPR17 expression (immunocytochemistry). The settings on record: 72 hours; for GPR17 Fold Induction (Over Vehicle; 3 μM): 3 μM (10× concentration, final 0.3 μM), fold change over vehicle.
The next data set has as its target PDGFRα (Homo sapiens (Human), UniProt P16234). Nature of the data set: PDGFRα kinase enzyme assay (Promega PDGFRα Kinase Enzyme System, ADP-Glo). Type of data set: biochemical. The settings on record: 150 uM ATP. The method, boiled down: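 Read-out was ADP-Glo: remaining ATP depleted, ADP converted to luminescence and compared with a standard curve.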
In general terms: In ADP-Glo the light output rises with the ADP produced.

The mark [2] stands for this setting: 11-point dose response, 10,000 nM to 0.169 nM, BLQ = below limit of quantitation, read-out: IC50 Values on PDGFRα Kinase Inhibition, IC50.

Sequence of PDGFRα (P16234 24-1089): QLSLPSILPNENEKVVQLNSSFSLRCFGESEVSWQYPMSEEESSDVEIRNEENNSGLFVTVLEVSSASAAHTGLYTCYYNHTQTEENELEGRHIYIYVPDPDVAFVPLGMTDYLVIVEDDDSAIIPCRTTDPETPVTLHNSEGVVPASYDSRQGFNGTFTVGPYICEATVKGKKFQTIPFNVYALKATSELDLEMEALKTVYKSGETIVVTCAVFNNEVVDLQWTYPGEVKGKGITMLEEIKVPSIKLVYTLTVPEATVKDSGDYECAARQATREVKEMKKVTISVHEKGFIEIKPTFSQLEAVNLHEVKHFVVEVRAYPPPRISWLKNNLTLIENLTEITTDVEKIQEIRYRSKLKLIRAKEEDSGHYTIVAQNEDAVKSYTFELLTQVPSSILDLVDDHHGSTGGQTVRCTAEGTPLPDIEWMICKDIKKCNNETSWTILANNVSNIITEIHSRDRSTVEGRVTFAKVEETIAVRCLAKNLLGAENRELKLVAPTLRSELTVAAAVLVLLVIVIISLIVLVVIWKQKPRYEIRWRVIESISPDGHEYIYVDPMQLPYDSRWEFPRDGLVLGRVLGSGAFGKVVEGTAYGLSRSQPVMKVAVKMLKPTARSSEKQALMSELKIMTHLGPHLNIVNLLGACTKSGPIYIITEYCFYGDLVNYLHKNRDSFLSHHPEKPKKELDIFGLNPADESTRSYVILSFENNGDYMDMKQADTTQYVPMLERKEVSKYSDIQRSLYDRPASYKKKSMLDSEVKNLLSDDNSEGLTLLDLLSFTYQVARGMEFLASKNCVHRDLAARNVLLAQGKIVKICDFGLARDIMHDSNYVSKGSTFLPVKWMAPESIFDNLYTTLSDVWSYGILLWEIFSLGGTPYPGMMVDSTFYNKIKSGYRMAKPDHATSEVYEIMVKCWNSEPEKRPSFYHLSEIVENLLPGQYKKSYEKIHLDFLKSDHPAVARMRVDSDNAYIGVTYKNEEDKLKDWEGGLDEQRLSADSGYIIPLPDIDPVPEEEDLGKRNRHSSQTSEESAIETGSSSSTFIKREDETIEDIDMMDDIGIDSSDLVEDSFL

On to `Cn1cc(-c2ccc3c(N4CCN(c5ncc(C(O)C6CCCCO6)cn5)CC4)cnn3c2)cn1` (stereo not shown) [Compound 194, (2-(4-(6-(1-methyl-1H-pyrazol-4-yl)pyrazolo[1,5-a]pyridin-3-yl)piperazin-1-yl)pyrimidin-5-yl)(tetrahydro-2H-pyran-2-yl)methanol], for which, in data set [1], the “GPR17 Fold Induction (Over Vehicle; 3 μM)” value turned out to be 8.67. The IC50 (commonly the concentration needed to halve the response being measured) at PDGFRα (setting [2]) worked out at 0.195 µM.
For `CC(C)(C)OC(=O)N1CCN(c2cnn3cc(C4CC4)ccc23)CC1` [Compound 213, tert-butyl 4-{6-cyclopropylpyrazolo[1,5-a]pyridin-3-yl}piperazine-1-carboxylate], in that order: 0.68 and over 10 µM.
Regarding `Cn1cc(-c2ccc3c(N4CCN(C(=O)OCc5ccccc5C#N)CC4)cnn3c2)cn1` [Compound 281, 2-cyanobenzyl 4-(6-(1-methyl-1H-pyrazol-4-yl)pyrazolo[1,5-a]pyridin-3-yl)piperazine-1-carboxylate], the “GPR17 Fold Induction (Over Vehicle; 3 μM)” value in data set [1] stood at 11.42. The half-maximal inhibitory concentration (IC50) at PDGFRα (setting [2]) is 0.303 µM.
For `COc1cccc(-c2ccc3c(N4CCN(C(=O)OC(C)(C)C)CC4)cnn3c2)c1` [Compound 211, tert-butyl 4-(6-(3-methoxyphenyl)pyrazolo[1,5-a]pyridin-3-yl)piperazine-1-carboxylate], in that order: 2.54 and 7.38 µM.
As for `CC1CN(c2cnn3cc(-c4cnn(C)c4)ccc23)CCN1c1ncc(Cc2ccccc2)cn1` (stereo not shown) [Compound 143, 3-(4-(5-benzylpyrimidin-2-yl)-3-methylpiperazin-1-yl)-6-(1-methyl-1H-pyrazol-4-yl)pyrazolo[1,5-a]pyridine], the “GPR17 Fold Induction (Over Vehicle; 3 μM)” value in data set [1] was 3.89. The IC50 at PDGFRα (setting [2]) stood at 0.616 µM.
On the same counts, the results for `CN(Cc1ccccc1)C(=O)C1CCC(c2cnn3cc(-c4cnn(C)c4)ccc23)C1` (stereo not shown) [Compound 140, N-benzyl-N-methyl-3-(6-(1-methyl-1H-pyrazol-4-yl)pyrazolo[1,5-a]pyridin-3-yl)cyclopentane-1-carboxamide] are 3.54 and over 10 µM.
On the same counts, the results for `Cn1cc(-c2ccn3c(N4CCN(c5ncc(Cc6ccccc6)cn5)CC4)nnc3c2)cn1` [Compound 24, 3-[4-(5-benzylpyrimidin-2-yl)piperazin-1-yl]-7-(1-methyl-1H-pyrazol-4-yl)[1,2,4]triazolo[4,3-a]pyridine] are 0.54 and over 10 µM.
On to `CN(Cc1ccccc1)C(=O)C1CCN(c2cnn3cc(-c4cnn(C)c4)ccc23)CC1` [Compound 147, N-benzyl-N-methyl-1-(6-(1-methyl-1H-pyrazol-4-yl)pyrazolo[1,5-a]pyridin-3-yl)piperidine-4-carboxamide], for which the “GPR17 Fold Induction (Over Vehicle; 3 μM)” value in data set [1] was determined as 2.23. Moreover, the concentration for half-maximal inhibition (IC50) at PDGFRα (setting [2]) was 6.72 µM.
On the same counts, the results for `C[C@H](c1ccc(Cl)cc1)N(C)C(=O)N1CCN(c2cnn3cc(-c4cnn(C)c4)ccc23)CC1` [Compound 276, (R)—N-(1-(4-chlorophenyl)ethyl)-N-methyl-4-(6-(1-methyl-1H-pyrazol-4-yl)pyrazolo[1,5-a]pyridin-3-yl)piperazine-1-carboxamide] are 2.11 and 2.7 µM.
For `Cn1cc(-c2ccc3c(N4CCN(c5ncc(C(=O)c6ccc(F)cc6)cn5)CC4)cnn3c2)cn1` [Compound 25, (4-fluorophenyl)(2-{4-[6-(1-methyl-1H-pyrazol-4-yl)pyrazolo[1,5-a]pyridin-3-yl]piperazin-1-yl}pyrimidin-5-yl)methanone], in that order: 1.07 and over 10 µM.
For the compound `COc1ccc(-c2cncc(N[C@@H](C)c3cccc(NC(=O)c4cncc(C)c4)c3)n2)cc1OC` [Seralutinib, seralutinib, reference compound], in data set [1] (primary rat OPCs, 5 μM (10x; final 0.5 μM per method), percent GPR17+ cells as fold change over vehicle), the “GPR17 Fold Induction (Over Vehicle; 5 μM)” value came to 3.53. The IC50 on PDGFRα (20 ng purified PDGFRα, Poly (Glu4Tyr1) substrate, two hours, 11-point dose response, read-out: IC50 Values on PDGFRα Kinase Inhibition) came out at 0.228 µM.
